Results published in patent publication US10611740B2, “Aryl dihydro-2H-benzo[b][1,4]oxazine sulfonamide and related compounds for use as agonists of RORγ and the treatment of disease” (Lycera Corporation, priority 2015, dated 2020).

Experiments:
RORγ-LBD = molecular target: T1, RORγ-LBD (Homo sapiens, UniProt P51449); test: RORγ-Ligand Binding Domain (LBD) TR-FRET Assay; type: biochemical;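 on TR-FRET Assay Max Response: 665/615 nm ratio relative to signal without ursolic acid or compound set at 100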
T1 construct: made in house; host or cells: SF9 cells (baculovirus)
T1 sequence (P51449 269-508 limits assumed): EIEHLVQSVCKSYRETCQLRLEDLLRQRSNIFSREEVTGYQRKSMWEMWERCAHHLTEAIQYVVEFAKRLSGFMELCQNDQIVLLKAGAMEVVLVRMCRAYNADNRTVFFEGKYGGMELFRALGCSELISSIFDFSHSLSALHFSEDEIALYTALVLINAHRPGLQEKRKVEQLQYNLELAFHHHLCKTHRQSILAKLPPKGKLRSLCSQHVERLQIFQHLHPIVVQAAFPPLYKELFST
Method in brief: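 TR-FRET read-out using a biotin-tagged SRC1 coactivator LXXLL peptide (200 nM final), with the antagonist ursolic acid present at 2 μM final. Receptor is His-tagged LBD expressed in SF9 cells, ~3 nM final in pH 7.0 Tris/KCl/EDTA/DTT/BSA buffer; compounds in 1% DMSO final.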

Gal4-RORγ-LBD = molecular target: T2, Gal4-RORγ-LBD (Homo sapiens, UniProt P51449); test: Gal4-RORγ Luciferase Reporter Assay in HEK-293T Cells; type: cell-based; conditions: HEK-293 cells, luciferase reporter, with 2 μM ursolic acid
T2 construct: expressed in transfected cells; host or cells: HEK-293 cells (pcDNA3.1neo plasmid)
T2 sequence (P51449 269-508 limits assumed): T1 sequence (P51449 269-508 limits assumed)
Method in brief: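 Luminescence read-out (One-Glo, 10 min RT) after overnight compound exposure at 37 °C in HEK-293 cells carrying Gal4-RORγ-LBD plus a Gal4-luciferase reporter, in the presence of 2 μM ursolic acid. Max Response is the upper plateau from a 4-parameter logistic fit, normalized to untreated signal = 100.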

SMILES | EC50 (RORγ-LBD) [nM] | TR-FRET Assay Max Response (RORγ-LBD) | EC50 (Gal4-RORγ-LBD) [nM] | Gal4-RORγ Assay Max Response (Gal4-RORγ-LBD)
O=C(CC[C@H]1CN(S(=O)(=O)c2cccc(C(F)(F)F)c2)c2cc(-c3cc(F)ccc3F)ccc2O1)NC[C@H](O)C(=O)O [Compound 23S, (S)-3-(3-((S)-6-(2,5-difluoro-phenyl)-4-((3-(trifluoromethyl)-phenyl)sulfonyl)-3,4-dihydro-2H-benzo[b][1,4]oxazin-2-yl)propanamido)-2-hydroxypropanoic acid] | < 500 | **** (The symbol “****” indicates a value greater than 200) | 500 to 5000 | ** (The symbol “**” indicates a value in the range of greater than 90 to 150)
O=C(O)C1CCN(C(=O)NCC[C@H]2CN(S(=O)(=O)c3cccc(C(F)(F)F)c3)c3cc(-c4cc(F)ccc4F)ccc3O2)CC1 [Compound 23T, (S)-1-((2-(6-(2,5-difluorophenyl)-4-((3-(trifluoromethyl)phenyl)-sulfonyl)-3,4-dihydro-2H-benzo[b][1,4]oxazin-2-yl)ethyl)carbamoyl)piperidine-4-carboxylic acid] | < 500 | **** (The symbol “****” indicates a value greater than 200) | < 500 | ** (The symbol “**” indicates a value in the range of greater than 90 to 150)
O=C(O)[C@H]1CCCN1C(=O)NCC[C@H]1CN(S(=O)(=O)c2cccc(C(F)(F)F)c2)c2cc(-c3cc(F)ccc3F)ccc2O1 [Compound 23U, ((2-((S)-6-(2,5-difluorophenyl)-4-((3-(trifluoromethyl)phenyl)-sulfonyl)-3,4-dihydro-2H-benzo[b][1,4]oxazin-2-yl)ethyl)carbamoyl)-D-proline] | < 500 | **** (The symbol “****” indicates a value greater than 200) | < 500 | ** (The symbol “**” indicates a value in the range of greater than 90 to 150)
O=C(O)[C@@H]1CCCN1C(=O)NCC[C@H]1CN(S(=O)(=O)c2cccc(C(F)(F)F)c2)c2cc(-c3cc(F)ccc3F)ccc2O1 [Compound 23V, ((2-((S)-6-(2,5-difluorophenyl)-4-((3-(trifluoromethyl)phenyl)-sulfonyl)-3,4-dihydro-2H-benzo[b][1,4]oxazin-2-yl)ethyl)carbamoyl)-L-proline] | < 500 | **** (The symbol “****” indicates a value greater than 200) | 500 to 5000 | ** (The symbol “**” indicates a value in the range of greater than 90 to 150)
CN(CC(=O)O)C(=O)NCC[C@H]1CN(S(=O)(=O)c2cccc(C(F)(F)F)c2)c2cc(-c3cc(F)ccc3F)ccc2O1 [Compound 23W, (S)-N-((2-(6-(2,5-difluorophenyl)-4-((3-(trifluoromethyl)phenyl)-sulfonyl)-3,4-dihydro-2H-benzo[b][1,4]oxazin-2-yl)ethyl)carbamoyl)-N-methylglycine] | < 500 | **** (The symbol “****” indicates a value greater than 200) | < 500 | ** (The symbol “**” indicates a value in the range of greater than 90 to 150)
O=C(O)CNC(=O)NCC[C@H]1CN(S(=O)(=O)c2cccc(C(F)(F)F)c2)c2cc(-c3cc(F)ccc3F)ccc2O1 [Compound 23X, (S)-((2-(6-(2,5-difluorophenyl)-4-((3-(trifluoromethyl)phenyl)-sulfonyl)-3,4-dihydro-2H-benzo[b][1,4]oxazin-2-yl)ethyl)carbamoyl)glycine] | < 500 | **** (The symbol “****” indicates a value greater than 200) | 500 to 5000 | ** (The symbol “**” indicates a value in the range of greater than 90 to 150)
CN(CCC(=O)O)C(=O)NCC[C@H]1CN(S(=O)(=O)c2cccc(C(F)(F)F)c2)c2cc(-c3cc(F)ccc3F)ccc2O1 [Compound 23Y, (S)-3-(3-(2-(6-(2,5-difluoro-phenyl)-4-((3-(trifluoromethyl)-phenyl)sulfonyl)-3,4-dihydro-2H-benzo[b][1,4]oxazin-2-yl)ethyl)-1-methylureido)propanoic acid] | < 500 | *** (The symbol “***” indicates a value in the range of greater than 150 to 200) | < 500 | ** (The symbol “**” indicates a value in the range of greater than 90 to 150)
Cc1cnc(-c2ccc3c(c2)N(S(=O)(=O)c2cccc(C(F)(F)F)c2)C[C@H](CCC(=O)O)O3)o1 [Compound 26, (S)-3-(6-(5-methyloxazol-2-yl)-4-((3-(trifluoromethyl)phenyl)sulfonyl)-3,4-dihydro-2H-benzo[b][1,4]oxazin-2-yl)propanoic acid] | 500 to 5000 | *** (The symbol “***” indicates a value in the range of greater than 150 to 200) | 500 to 5000 | * (The symbol “*” indicates a value in the range of 25 to 90)
NCC[C@H]1CN(S(=O)(=O)c2cccc(C(F)(F)F)c2)c2cc(-c3cc(F)ccc3F)ccc2O1 [Compound 27, (S)-2-(6-(2,5-difluorophenyl)-4-((3-(trifluoromethyl)phenyl)sulfonyl)-3,4-dihydro-2H-benzo[b][1,4]oxazin-2-yl)ethan-1-amine] | < 500 | **** (The symbol “****” indicates a value greater than 200) | 500 to 5000 | * (The symbol “*” indicates a value in the range of 25 to 90)
O=c1[nH]nc(CC[C@H]2CN(S(=O)(=O)c3cccc(C(F)(F)F)c3)c3cc(-c4cccc(C(F)(F)F)n4)ccc3O2)o1 [Compound 28A, (S)-5-(2-(4-((3-(trifluoromethyl)-phenyl)sulfonyl)-6-(6-(trifluoromethyl)pyridin-2-yl)-3,4-dihydro-2H-benzo[b][1,4]oxazin-2-yl)ethyl)-1,3,4-oxadiazol-2(3H)-one] | < 500 | **** (The symbol “****” indicates a value greater than 200) | < 500 | ** (The symbol “**” indicates a value in the range of greater than 90 to 150)
CN(C)c1cccc(-c2ccc3c(c2)N(S(=O)(=O)c2cccc(C(F)(F)F)c2)C[C@H](CCc2n[nH]c(=O)o2)O3)n1 [Compound 28B, (S)-5-(2-(6-(6-(dimethylamino)-pyridin-2-yl)-4-((3-(trifluoro-methyl)phenyl)sulfonyl)-3,4-dihydro-2H-benzo[b][1,4]oxazin-2-yl)ethyl)-1,3,4-oxadiazol-2(3H)-one] | < 500 | **** (The symbol “****” indicates a value greater than 200) | < 500 | ** (The symbol “**” indicates a value in the range of greater than 90 to 150)
O=c1[nH]nc(CC[C@H]2CN(S(=O)(=O)c3cccc(C(F)(F)F)c3)c3cc(-c4cncc(C(F)(F)F)c4)ccc3O2)o1 [Compound 28C, (S)-5-(2-(4-((3-(trifluoromethyl)-phenyl)sulfonyl)-6-(5-(trifluoromethyl)pyridin-3-yl)-3,4-dihydro-2H-benzo[b][1,4]oxazin-2-yl)ethyl)-1,3,4-oxadiazol-2(3H)-one] | < 500 | **** (The symbol “****” indicates a value greater than 200) | < 500 | * (The symbol “*” indicates a value in the range of 25 to 90)
